Experimental data taken from patent publication US20250367098A1, “SUNSCREEN COMPOSITION FOR LACTOBACILLUS AND S. EPIDERMIDIS PROTECTION ON SKIN” (DSM IP Assets B.V., priority 2022, published 2025).

Assays:
[1] = test system: Staphylococcus epidermidis ATCC 12228; assay: In vitro UV model: bacterial survival after UV irradiation (96-well, MPN method); assay type: cell-based
Description: (§1) Accordingly, the inventors developed a targeted in vitro liquid model in 96-well microplate format to screen for UV protective actives (“UV filters”) on bacterial survival upon UV irradiation. The effects of selected UV irradiation conditions tested on microbial population of Lactobacillus crispatus (L. crispatus) and Staphylococcus epidermidis (S. epidermidis) in the presence of UV filter samples and combinations thereof were evaluated with the evolution of the residual microbial population after 4 h. The inhibition of bacterial growth, as consequence of UV irradiation, was compared to that of the same strain without UV irradiation and was expressed in percentage of survival (%). The microbial strains used in this study are listed below and their cultures are reconstituted according to the direction of the supplier collection center of the reference strain, CRBIP (Institut Pasteur Collection, France) or ATCC (American Type Culture Collection, USA): • Lactobacillus crispatus CIP 103604 • Staphylococcus epidermidis ATCC 12228 The 96-well plate was filled with the culture media (140 μL) and a calibrated inoculum (20 μL) of each bacterial strain was added to reach […] colony forming units per milliliter (cfu/mL) final concentration. After contamination, the sample was added (40 μL; 20% v/v) in triplicate and was thoroughly mixed to ensure a homogeneous distribution. Then, the plate was submitted to UV stress through an UV irradiator system (BioSun, Vilber Lourmat, France) according to the UV doses presented Table 1 below. The specific UV dose selected was between 10 and 49% survival of the microbial population. For the microbial population counts, aliquots of the contaminated samples of L. crispatus and S. epidermidis were serially diluted (4 decimal dilutions followed by 8 binary dilutions, in triplicate) in culture media on 96-wells plates with triphenyltetrazolium. Then, the plates were incubated at 37° C.±2,5° C. during 48 h taking into account the respiratory type of each strain. […] The use level of the single UV filter and combinations in the test formulations was calculated to obtain a predicted in vitro SPF value of 5.75+/−0.15 and 23.45+/−0.65, respectively (Table 2). […] The relative percentage of protection (%) was calculated from the difference between the survival percentages of samples and vehicle control (with UV irradiation) and divided to the survival percentage of the vehicle control. Consequently, the survival of each microbial population and the relative protection by the UV filter(s) were calculated and are summarized in the Table 2.

[2] = test system: Lactobacillus crispatus CIP 103604; assay: as above; assay type: cell-based
Description: as §1

Compound	protection of S. epidermidis from UV radiation (in words) ([1]; summary statement)	survival rate of L. crispatus after UV radiation (in words) ([2]; summary statement)	S. epidermidis relative protection by the UV filter(s) vs. vehicle control ([1]; 15 SED (150 mJ/cm^2 UVA+UVB), sample at 20% v/v, after 4 h)	L. crispatus relative protection by the UV filter(s) vs. vehicle control ([2]; 50 SED (500 mJ/cm^2 UVA+UVB), sample at 20% v/v, after 4 h)
CCCCC(CC)COC(=O)C(C#N)=C(c1ccccc1)c1ccccc1 (stereo not shown) [Inv. 1, Octocrylene]	efficiently protecting	particularly good survival rate	–	–
CCCCC(CC)COC(=O)c1ccc(Nc2nc(Nc3ccc(C(=O)OCC(CC)CCCC)cc3)nc(Nc3ccc(C(=O)OCC(CC)CCCC)cc3)n2)cc1 (stereo not shown) [Inv. 3, Ethylhexyl Triazone]	–	–	(+59) %	(+100) %
